Laboratory results reported in CN110711192A, “色氨酸增强对革兰氏阴性菌杀菌作用的应用” (Shandong University, priority 2018, dated 2020).
Converted amounts (≈) assume the structure as drawn.

How the values were obtained:
[1] = test system: Escherichia coli MG1655 [大肠杆菌MG1655]; assay: Bactericidal effect of antibiotic with or without tryptophan (viable count); assay type: cell-based
MG1655 [2] = assay: Intracellular reactive oxygen species (H2DCFDA); assay type: cell-based, Escherichia coli; conditions: log and stationary phase; 60 mg/L gentamicin alone or with 5 mM tryptophan, 1 h
[3] = test system: MG1655 drug-tolerant bacteria [耐药菌]; assay: Killing of drug-tolerant bacteria (viable count); assay type: cell-based, Escherichia coli; conditions: after gentamicin 60 mg/L or kanamycin 40 mg/L 5 h; then antibiotic + 5 mM tryptophan 5 h; printed as can reach (可以达到)
MG1655 [4] = assay: Rate of generation of drug-tolerant bacteria (viable count); assay type: cell-based, Escherichia coli; conditions: cultures of 3 to 9 h; gentamicin 60 mg/L and kanamycin 40 mg/L 5 h, then various tryptophan concentrations 30 min; concentration-dependent; printed as up to (可达)
MG1655 [5] = assay: Uptake of Texas Red-labelled gentamicin (flow cytometry); assay type: cell-based, Escherichia coli; conditions: log and stationary phase, 0, 1, 5, 10 mM tryptophan
[6] = test system: resistant strain EY1 [抗性菌EY1]; assay: Minimum inhibitory concentration, resistant strain EY1; assay type: cell-based; conditions: serial dilution, 96-well plate, broth
[7] = test system: sensitive strain MG1655 [敏感菌株MG1655]; assay: Minimum inhibitory concentration, sensitive strain MG1655; assay type: cell-based; conditions: Escherichia coli, serial dilution, 96-well plate, broth

Compound	increase of bactericidal effect versus group without tryptophan ([1]; 5 mM tryptophan with gentamicin 3 mg/L and MIC 4 mg/L, 24 h, logarithmic phase)	increase of bactericidal effect ([1]; 5 mM tryptophan with kanamycin 1.5 mg/L to MIC 3.5 mg/L, 24 h, logarithmic phase)	increase of bactericidal efficiency ([1]; stationary phase MG1655, 5 mM tryptophan with gentamicin 60 mg/L or kanamycin 40 mg/L, 1 h per figure legend, 24 h per example)	intracellular reactive oxygen species level (MG1655 [2])	bactericidal efficiency against drug-tolerant bacteria [3]	reduction of generation of drug-tolerant bacteria (MG1655 [4])	bacterial uptake of antibiotic (MG1655 [5])	MIC [6]	MIC [7]
N[C@@H](Cc1c[nH]c2ccccc12)C(=O)O [色氨酸]	100 fold	10-100 fold	~10 fold	能够提高胞内活性氧的水平	80-90%	10-1000 fold	能够提升细菌对于抗生素的吸收,并呈现剂量依赖性	–	–
NC[C@H]1O[C@H](O[C@H]2[C@H](O)[C@@H](O[C@H]3O[C@H](CO)[C@@H](O)[C@H](N)[C@H]3O)[C@H](N)C[C@@H]2N)[C@H](O)[C@@H](O)[C@@H]1O [卡那霉素]	–	–	–	–	–	–	–	220 µg/mL (≈ 454 µM)	3.5 µg/mL (≈ 7.22 µM)
